What was measured:
HUH7 cells = assay: Neutral red cell viability assay, HUH7; type: cell-based, human; conditions: for IC50: Homo sapiens, Huh-7, 24 h treatment, neutral red, read-out: LD50 HUH7 (HCC)
Experimental: (§1) The human hepatocellular carcinoma (HCC) cell line HUH7 was purchased from ATCC (LGC standards GmbH, Wesel, Germany). The Austrian human HCC cell line AKH12 has been well characterized and was kindly provided by Prof. Bettina Grasl-Kraupp. HUH7 cells were cultured in Dulbecco’s modified Eagle’s medium (Thermo Fisher Scientific, Waltham, MA, USA) containing 10% heat-inactivated fetal bovine serum (FBS) (Sigma-Aldrich, St. Louis, MO, USA), 1% penicillin-streptomycin (10,000 U/mL) (Thermo Fisher Scientific, Waltham, MA, USA), and 1% minimum essential medium nonessential amino acids (100x) (Thermo Fisher Scientific, Waltham, MA, USA). AKH12 cells were cultured in RPMI1640 medium (Sigma-Aldrich, St. Louis, MO, USA) containing 10% heat-inactivated FBS. DAOY and D283Med (short D283) medulloblastoma (MB) cells were purchased from ATCC (LGC standards GmbH, Wesel, Germany). D425Med (short D425) and UW228-2 were provided by Thomas Ströbel from the Institute of Neurology Medical University of Vienna. The cells were cultured in Dulbecco’s modified Eagle’s medium (Sigma-Aldrich, St. Louis, MO, USA) containing 10% FBS (Sigma-Aldrich, St. Louis, MO, USA), 2% L-Glutamine (Sigma-Aldrich, St. Louis, MO, USA), and 0.2% Normocin (Sigma-Aldrich, St. Louis, MO, USA). U-251 MG (short U251) glioblastoma (GBM) cell line was purchased from Sigma-Aldrich and cultured in Dulbecco’s modified Eagle’s medium (Sigma-Aldrich, St. Louis, MO, USA) containing 10% FBS (Sigma-Aldrich, St. Louis, MO, USA), 2% L-Glutamine (Sigma-Aldrich, St. Louis, MO, USA), and 0.2% Normocin (Sigma-Aldrich, St. Louis, Missouri, USA). Human umbilical vein endothelial cells (HUVECs) were provided by Brigitte Winter from the Department of Surgery Medical University of Vienna and were grown in endothelial cell growth medium-2 BulletKitTM (Lonza, Basel, Switzerland) under standard tissue culture conditions. All cells were incubated at 37 °C in a 5% CO2 atmosphere and regularly checked for mycoplasma contamination.
(§2) Cell viability was determined using a neutral red assay, as previously described. The cells were placed in 24-well plates and grown to reach 70–80% confluency prior to treatment. After treatment for 24 h, cells were incubated with neutral red at a concentration of 50 µg/mL in serum-free medium for 2 h at 37 °C. Cells were then washed 2x and incubated with 1% acetic acid in 70% ethanol. The dye concentration was measured photometrically at 562 nm. The percentage of survival was calculated considering DMSO-treated (indicated as 0 µM concentration) cells as 100% control.
(§3) LD50 was defined as the amount of a toxic agent required to eliminate 50% of the cell population. The LD50 was calculated in each experiment from the respective dose–response curve. All experiments were performed in triplicate wells.

UW228-2 cells = assay: Neutral red cell viability assay, UW228-2; type: cell-based, human; conditions: for reduction of cell viability, UW228-2: 50 µM, 24 h, first screening; for IC50: Homo sapiens, UW228-2, 24 h treatment, neutral red, read-out: LD50 UW228-2 (MB)
Experimental: as §1, §2, §3

HUVEC cells [1] = assay: Neutral red cell viability assay, HUVEC (Table 1); type: cell-based; conditions: Table 1, nonmalignant primary cells, 24 h
Experimental: as §1, §2, §3

AKH12 cells = assay: Neutral red cell viability assay, AKH12; type: cell-based, human; conditions: for reduction of cell viability, AKH12: 50 µM, 24 h, first screening; for IC50: Homo sapiens, 24 h treatment, neutral red, read-out: LD50 AKH12 (HCC)
Experimental: as §1, §2, §3

U251 cells = assay: Neutral red cell viability assay, U251; type: cell-based, human; conditions: for decrease of cell viability, U251: 50 µM, 24 h, first screening; for IC50: Homo sapiens, U-251, 24 h treatment, neutral red, read-out: LD50 U251 (GBM)
Experimental: as §1, §2, §3

D283 cells = assay: Neutral red cell viability assay, D283; type: cell-based, human; conditions: for reduction of cell viability, D283: 50 µM, 24 h, first screening; for IC50: Homo sapiens, D283, 24 h treatment, read-out: LD50 D283 (MB)
Experimental: as §1, §2, §3

D425 cells = assay: Cell viability assay (suspension cell line), MTT/CellTiter Blue, D425; type: cell-based, human; conditions: for reduction of cell viability, D425: 50 µM, 24 h, first screening; for IC50: Homo sapiens, 24 h treatment, suspension cell assay, read-out: LD50 D425 (MB); for HUVEC/D425 LD50 Fold Change: ratio of LD50 HUVEC to LD50 D425; for D425 cell viability as compared to HUVEC cells: dose-response 24 h, Student's t-test, p ≤0.05 / p ≤0.01
Experimental: as §1, §3
(§4) One day before treatment, 2 × 10^4 of D425Med or HUVEC cells were seeded into 24-well plates and incubated at 37 °C in a humidified atmosphere containing 5% CO2.The cells were treated with different compounds for 24 h. A […] assay using the CellTiter Blue reagent (Promega, Fitchburg, Wisconsin, USA) was performed according to the manufacturer’s protocol. Experiments were performed in triplicate and repeated three times. The percentage of survival was calculated as the ratio using DMSO-treated (indicated as 0 µM concentration) cells as 100% control.

DAOY cells = assay: Neutral red cell viability assay, DAOY; type: cell-based, human; conditions: for reduction of cell viability, DAOY: 50 µM, 24 h, first screening; for IC50: Homo sapiens, Daoy, 24 h treatment, neutral red, read-out: LD50 DAOY (MB)
Experimental: as §1, §2, §3

HUVEC cells [2] = assay: Cell viability assay MTT/CellTiter Blue, HUVEC (Table 2); type: cell-based; conditions: Table 2, nonmalignant primary cells, 24 h, assay as for D425
Experimental: as §1, §3, §4

Structure (SMILES): CC(c1ccccc1)N1C2CCC(C2)C1CN(CC1C2CCC(C2)N1C(C)c1ccccc1)S(=O)(=O)c1ccc(-c2ccccc2)cc1 [Compound 13a, N-Bis-(((1S,3R,4R)-2-((S)-1-phenylethyl)-2-azabicyclo[2.2.1]heptan-3-yl)methyl)-[1,1'-biphenyl]-4-sulfonamide]
- IC50 (HUH7 cells): 13.9 ± 0.49 µM
- reduction of cell viability, UW228-2 (UW228-2 cells): reduced cell viability
- IC50 (UW228-2 cells): 25.9 ± 1.98 µM
- LD50 HUVEC (HUVEC cells [1]): 12.13 ± 0.26 µM
- reduction of cell viability, AKH12 (AKH12 cells): reduced cell viability below LD50
- IC50 (AKH12 cells): 8 ± 0.28 µM
- decrease of cell viability, U251 (U251 cells): more than 50%
- IC50 (U251 cells): 27.6 ± 1.04 µM
- reduction of cell viability, D283 (D283 cells): reduced cell viability
- IC50 (D283 cells): 38.4 ± 1.11 µM
- reduction of cell viability, D425 (D425 cells): reduced cell viability
- IC50 (D425 cells): 30.5 ± 1.86 µM
- HUVEC/D425 LD50 Fold Change (D425 cells): 0.52
- reduction of cell viability, DAOY (DAOY cells): reduced cell viability
- IC50 (DAOY cells): 19.2 ± 1.37 µM
- LD50 HUVEC (HUVEC cells [2]): 16 ± 0.79 µM

Structure (SMILES): CC(c1ccccc1)N1C2CCC(C2)C1CNS(=O)(=O)c1ccc(C(F)(F)F)cc1 [Compound 10f, 4-Trifluoromethyl-N-((2-((S)-1-phenylethyl)-(1S,3R,4R)-2-azabicyclo[2.2.1]heptane-3-yl)benzenesulfonamide]
- IC50 (HUH7 cells): 24.6 ± 1.54 µM
- reduction of cell viability, UW228-2 (UW228-2 cells): reduced cell viability
- IC50 (UW228-2 cells): 28 ± 2.09 µM
- LD50 HUVEC (HUVEC cells [1]): 17.26 ± 2.33 µM
- reduction of cell viability, AKH12 (AKH12 cells): reduced cell viability below LD50
- IC50 (AKH12 cells): 24.7 ± 1.98 µM
- decrease of cell viability, U251 (U251 cells): more than 50%
- IC50 (U251 cells): 32.7 ± 1.32 µM
- reduction of cell viability, D283 (D283 cells): reduced cell viability
- IC50 (D283 cells): 18.8 ± 1.22 µM
- reduction of cell viability, D425 (D425 cells): reduced cell viability
- IC50 (D425 cells): 20.2 ± 0.79 µM
- HUVEC/D425 LD50 Fold Change (D425 cells): 1.14
- reduction of cell viability, DAOY (DAOY cells): reduced cell viability
- IC50 (DAOY cells): 15.8 ± 1.09 µM
- LD50 HUVEC (HUVEC cells [2]): 23.15 ± 2.21 µM

Structure (SMILES): CC(=O)Nc1ccc(S(=O)(=O)N(CCN(CC2C3CCC(C3)N2C(C)c2ccccc2)S(=O)(=O)c2ccc(NC(C)=O)cc2)CC2C3CCC(C3)N2C(C)c2ccccc2)cc1 [Compound 12i, Bis-N,N-(4-(N-(((1S,3R,4R)-2-((S)-1-phenylethyl)-2-azabicyclo[2.2.1]heptan-3-yl)methyl)sulfamoyl)ethyl)phenyl)acetamide]
- IC50 (HUH7 cells): 7.75 ± 0.84 µM
- reduction of cell viability, UW228-2 (UW228-2 cells): reduced cell viability
- IC50 (UW228-2 cells): 28.4 ± 2.11 µM
- LD50 HUVEC (HUVEC cells [1]): 3.16 ± 0.15 µM
- reduction of cell viability, AKH12 (AKH12 cells): reduced cell viability below LD50
- IC50 (AKH12 cells): 5.75 ± 0.47 µM
- decrease of cell viability, U251 (U251 cells): more than 50%
- IC50 (U251 cells): 15.3 ± 1.59 µM
- reduction of cell viability, D283 (D283 cells): reduced cell viability
- IC50 (D283 cells): 21.8 ± 1.9 µM
- reduction of cell viability, D425 (D425 cells): reduced cell viability
- IC50 (D425 cells): 15.6 ± 0.93 µM
- HUVEC/D425 LD50 Fold Change (D425 cells): 0.57
- reduction of cell viability, DAOY (DAOY cells): reduced cell viability
- IC50 (DAOY cells): 12.9 ± 1.59 µM
- LD50 HUVEC (HUVEC cells [2]): 8.91 ± 2.11 µM

Structure (SMILES): COc1ccc(-c2ccc(S(=O)(=O)NCC3C4CCC(C4)N3C(C)c3ccccc3)cc2)cc1 [Compound 10e, 4-(4-Metoxyphenyl)-N-((2-((S)-1-phenylethyl)-(1S,3R,4R)-2-azabicyclo[2.2.1]heptane-3-yl)benzenesulfonamide]
- IC50 (HUH7 cells): 16.3 ± 0.69 µM
- reduction of cell viability, UW228-2 (UW228-2 cells): reduced cell viability
- IC50 (UW228-2 cells): 26.7 ± 1.52 µM
- LD50 HUVEC (HUVEC cells [1]): 9.58 ± 1.88 µM
- reduction of cell viability, AKH12 (AKH12 cells): reduced cell viability below LD50
- IC50 (AKH12 cells): 32 ± 2.21 µM
- decrease of cell viability, U251 (U251 cells): more than 50%
- IC50 (U251 cells): 16 ± 2 µM
- reduction of cell viability, D283 (D283 cells): reduced cell viability
- IC50 (D283 cells): 15.6 ± 0.59 µM
- reduction of cell viability, D425 (D425 cells): reduced cell viability
- IC50 (D425 cells): 11 ± 0.47 µM
- D425 cell viability as compared to HUVEC cells (D425 cells): significantly reduced D425 cell viability as compared to HUVEC cells
- HUVEC/D425 LD50 Fold Change (D425 cells): 1.05
- reduction of cell viability, DAOY (DAOY cells): reduced cell viability
- IC50 (DAOY cells): 15.5 ± 1.62 µM
- LD50 HUVEC (HUVEC cells [2]): 11.54 ± 2.8 µM

Structure (SMILES): Cc1ccc(-c2ccc(S(=O)(=O)NCC3C4CCC(C4)N3C(C)c3ccccc3)cc2)cc1 [Compound 10b, 4-(4-Tolyl)-N-((2-((S)-1-phenylethyl)-(1S,3R,4R)-2-azabicyclo[2.2.1]heptane-3-yl)benzenesulfonamide]
- IC50 (HUH7 cells): 21.3 ± 1.23 µM
- LD50 HUVEC (HUVEC cells [1]): 12.88 ± 2.13 µM
- reduction of cell viability, AKH12 (AKH12 cells): reduced cell viability below LD50
- IC50 (AKH12 cells): 23.7 ± 1.27 µM
- decrease of cell viability, U251 (U251 cells): more than 50%
- IC50 (U251 cells): 20.4 ± 1.58 µM
- IC50 (D283 cells): 31.3 ± 1.32 µM
- IC50 (D425 cells): 16.4 ± 2.34 µM
- D425 cell viability as compared to HUVEC cells (D425 cells): significantly reduced D425 cell viability as compared to HUVEC cells
- HUVEC/D425 LD50 Fold Change (D425 cells): 1.76
- LD50 HUVEC (HUVEC cells [2]): 28.9 ± 2.97 µM

Structure (SMILES): CC(c1ccccc1)N1CC(NS(=O)(=O)c2ccc(C(F)(F)F)cc2)C2CCC1C2 [Compound 11f, 4-Trifluoromethyl-N-((2-((S)-1-phenylethyl)-(1S,4S,5R)-2-azabicyclo[3.2.1]octan-4-yl)benzenesulfonamide]
- reduction of cell viability, HUH7 (HUH7 cells; 50 µM, 24 h, first screening): more than 50%
- IC50 (HUH7 cells): 42.7 ± 1.98 µM
- reduction of cell viability, UW228-2 (UW228-2 cells): reduced cell viability
- IC50 (UW228-2 cells): 31.4 ± 2.12 µM
- LD50 HUVEC (HUVEC cells [1]): 22.28 ± 1.45 µM
- decrease of cell viability, U251 (U251 cells): more than 50%
- IC50 (U251 cells): 31.5 ± 2 µM
- reduction of cell viability, D283 (D283 cells): reduced cell viability
- IC50 (D283 cells): 29.9 ± 1.5 µM
- reduction of cell viability, D425 (D425 cells): reduced cell viability
- IC50 (D425 cells): 32 ± 1.37 µM
- HUVEC/D425 LD50 Fold Change (D425 cells): 0.98
- reduction of cell viability, DAOY (DAOY cells): reduced cell viability
- IC50 (DAOY cells): 17.3 ± 0.99 µM
- LD50 HUVEC (HUVEC cells [2]): 31.52 ± 1.16 µM

Reference: article PMC7288168, “Synthesis and Cytotoxic Activity of Chiral Sulfonamides Based on the 2-Azabicycloalkane Skeleton” (Molecules, 2020)
